Experimental data: US20130210733A1, “METHODS OF TREATING LUNG DISEASE” (Cytokinetics, Inc., priority 2010, published 2013)
Where two headings read alike, the source gives them in different places.

Assays:
[1] = system: human pulmonary arterial smooth muscle cells from patients with idiopathic pulmonary arterial hypertension (IPAH HPASMC); test: IPAH HPASMC proliferation assay; assay type: cell-based; details: for inhibition at 1 µM: Homo sapiens; for inhibition at 1 µM / effect on proliferation (in words) / inhibition of proliferation normalized to FBS-induced growth / effect of combined treatment versus single agents (in words): IPAH HPASMC; for effect on proliferation (in words): concentrations up to 1 uM
Experimental: (§1) Primary cultures of human pulmonary arterial smooth muscle cells were derived from distal blood vessels taken from lungs harvested from patients with idiopathic pulmonary arterial hypertension (IPAH) who had been treated with iloprost or a combination of epoprostenol and bosentan for at least 1.4 years. Cells were cultured for 24 hours in 6-well plates in a solution of human smooth muscle basal medium (SMBM; TCS Cellworks, UK) with 9% fetal bovine serum (FBS; Invitrogen, US) and penicillin-streptomycin (PenStrep; 50 units/mL; Invitrogen, US). The incubating solution was then changed to PenStrep in SMBM and the cells were allowed to incubate for another 48 hours. Test compounds were administered to the test wells as DMSO solutions with FBS (FBS and DMSO or SMBM were administered to the control wells). After 96 hours of incubation, the cells were trypsinized (0.05% trypsin/EDTA; Invitrogen, US) and 20 uL of cell suspension was added to 20 uL of Accustain solution T and Accustain solution N (Labtech, UK). The cells were counted and their viability assessed using an ADAM Automated Cell Counter (Digital Bio, Korea). Results were expressed in cell number per mL and percent growth compared to FBS-induced growth alone.

[2] = system: human lung fibroblasts from patients with ideopathic pulmonary fibrosis (IPF) with secondary pulmonary arterial hypertension (PAH); test: Fibroblast proliferation assay; assay type: cell-based; details: for effect on proliferation (in words): lung fibroblasts from IPF patients with secondary PAH, 1 pM to 1 uM
Experimental: as §1
(§2) Using the procedure described in Example 1, primary cultures of human lung fibroblasts were derived from lungs harvested from patients with ideopathic pulmonary fibrosis (IPF) with secondary pulmonary arterial hypertension (PAH) who had previously been treated with epoprostenol, bosentan, and/or steroids. Treprostinil sodium was tested in these cells under the conditions described in Example 1 at concentrations of 1 pM, 10 pM, 100 pM, 1 nM, 10 nM, 100 nM, and 1 uM. The experiment was repeated four times and the results were averaged.

[3] = Fibroblast proliferation assay; assay type: cell-based, human; details: Homo sapiens, Fibroblast, read-out: inhibition of proliferation normalized to FBS-induced growth
Experimental: as §1, §2

[4] = system: human pulmonary arterial smooth muscle cells from healthy patients (normal HPASMC); test: Normal HPASMC proliferation assay; assay type: cell-based; details: for inhibition at 1 µM: Homo sapiens, read-out: inhibition of proliferation normalized to FBS-induced growth; for effect on proliferation (in words): normal HPASMC, 1 pM to 1 uM
Experimental: as §1
As a control, primary cultures of human pulmonary arterial smooth muscle cells were derived from distal blood vessels taken from lungs harvested from healthy patients according to procedure described in Example 1. Treprostinil sodium was tested in these cells under the conditions described in Example 1 at concentrations of 1 pM, 10 pM, 100 pM, 1 nM, 10 nM, 100 nM, and 1 uM. The experiment was repeated four times and the results were averaged.

[5] = 1 uM test compound, 96 hours incubation, cell count, read-out: inhibition of proliferation normalized to FBS-induced growth
[6] = 1 uM test compound, 96 hours incubation, cell count

For CCCC[C@@H](NC(=O)[C@@H](Cc1cn(C(=O)OC)c2ccccc12)NC(=O)[C@H](CC(C)(C)C)NC(=O)N1[C@H](C)CCC[C@@H]1C)C(=O)O [BQ788, reference compound], the inhibition at 1 µM [1, 5] was about 20% and the “effect on proliferation (in words)” value [1] was “inhibited proliferation of IPAH cells at higher concentrations”.
With Cc1ccc(C(=O)N(CCCN)[C@@H](c2oc3cc(Cl)ccc3c(=O)c2Cc2ccccc2)C(C)C)cc1 [Compound A, N-(3-Aminopropyl)-N-[(R)-(1-3-benzyl-7-chloro-4-oxo-4H-chromen-2-yl)-2-methyl-propyl]-4-methyl-benzamide] the “inhibition of proliferation normalized to FBS-induced growth” value [1, 6] was “approximately 70%” and the “effect on proliferation (in words)” value [1] was “inhibited proliferation of IPAH cells in a dose dependent manner”.
For CC(C)Oc1ccc(C(=O)N[C@H](CNC(=O)CN(C)C)Cc2ccc(-c3cn4cccc([C@H](C)O)c4n3)cc2)cc1Cl [Compound B, 3-Chloro-N-{(1S)-2-[(N,N-dimethylglycyl)amino]-1-[(4-{8-[(1S)-1-hydroxyethyl]imidazo[1,2-c]pyridin-2-yl}phenyl)methyl]ethyl}-4-[(1-methylethyl)oxy]benzamide], the “inhibition of proliferation normalized to FBS-induced growth” value [1, 6] was “approximately 95%” and the “effect on proliferation (in words)” value [1] was “inhibited proliferation of IPAH cells in a dose dependent manner”.
For COC(c1ccccc1)(c1ccccc1)[C@H](Oc1nc(C)cc(C)n1)C(=O)O [ambrisentan, reference compound], the inhibition at 1 µM [1, 5] was about 25%.
With COc1ccccc1Oc1c(NS(=O)(=O)c2ccc(C(C)(C)C)cc2)nc(-c2ncccn2)nc1OCCO [bosentan, reference compound] the inhibition at 1 µM [1, 5] was about 20% and the “effect on proliferation (in words)” value [1] was “inhibited proliferation of IPAH HPASMC cells at higher concentrations”.
In the case of CC#CCC(C)[C@H](O)/C=C/[C@@H]1[C@H]2C/C(=C/CCCC(=O)O)C[C@H]2C[C@H]1O (stereo partly drawn) [iloprost, reference compound], the inhibition at 1 µM [1, 5] is reported as about 40% and the “effect on proliferation (in words)” value [1] is reported as “inhibited proliferation of IPAH HPASMC cells in a dose dependent manner”.
With CS(=O)(=O)O.Cc1ccc(C(=O)N(CCCN)[C@@H](c2nc3cc(Cl)ccc3c(=O)n2Cc2ccccc2)C(C)C)cc1 [ispinesib mesylate, N-(3-aminopropyl)-N-[(1R)-1-(3-benzyl-7-chloro-4-oxo-3,4-dihydroquinazolin-2-yl)-2-methylpropyl]-4-methylbenzamide monomethanesulfonate] the “potency compared with treprostinil sodium (in words)” value ([2]; lung fibroblasts derived from IPF patients with secondary PAH) was “significantly more potent than treprostinil sodium”, the “effect on proliferation (in words)” value [2] was “inhibited proliferation of fibroblasts in a dose dependent manner” and the inhibition at 1 µM [3] was about 75%. The inhibition at 1 µM [4] was about 55%, the “effect on proliferation (in words)” value [4] was “inhibited proliferation of fibroblasts in a dose dependent manner” and the “potency compared with treprostinil sodium (in words)” value ([4]; normal HPASMCs) was “slightly more potent than treprostinil sodium”. The inhibition at 1 µM ([1]; 96 h, read-out: inhibition of proliferation normalized to FBS-induced growth, 1 uM test compound, 96 hours incubation, cell count) was about 80%, the inhibition at 1 µM ([1]; read-out: inhibition of proliferation normalized to FBS-induced growth, combination, 1 uM ispinesib mesylate and 10 nM treprostinil sodium) was about 90% and the inhibition at 1 µM ([1]; read-out: inhibition of proliferation normalized to FBS-induced growth, combination, 1 uM ispinesib mesylate and 100 nM BQ788) was about 75%. For the same molecule, the inhibition at 1 µM ([1]; read-out: inhibition of proliferation normalized to FBS-induced growth, combination, 1 uM ispinesib mesylate and 100 nM ambrisentan) was about 80%, the inhibition at 1 µM ([1]; read-out: inhibition of proliferation normalized to FBS-induced growth, combination, 1 uM ispinesib mesylate and 100 nM bosentan) was about 99% and the inhibition at 1 µM ([1]; read-out: inhibition of proliferation normalized to FBS-induced growth, combination, 1 uM ispinesib mesylate, 100 nM ambrisentan and 100 nM BQ788) was about 95%. The “effect on proliferation (in words)” value [1] was “inhibited proliferation of IPAH cells in a dose dependent manner”, the “potency in IPAH HPASMCs and fibroblasts compared with normal HPASMCs (in words)” value ([1]; comparison of Examples 9, 16 and 18) was “significantly more potent at inhibiting proliferation of IPAH HPASMCs and fibroblasts than normal HPASMCs” and the “effect of combined treatment versus single agents (in words)” value ([1]; ispinesib mesylate (1 pM to 1 uM) with 10 nM treprostinil sodium) was “enhanced the antiproliferative effects of either agent alone”. For the same molecule, the “effect of combined treatment versus single agents (in words)” value ([1]; ispinesib mesylate (1 pM to 1 uM) with 100 nM bosentan) was “enhanced the antiproliferative effects of either agent alone”.
For CCCCC[C@H](O)CC[C@@H]1[C@H]2Cc3cccc(OCC(=O)O)c3C[C@H]2C[C@H]1O [treprostinil sodium, reference compound], the “effect on proliferation (in words)” value [2] was “inhibited proliferation of fibroblasts at higher concentrations”, the inhibition at 1 µM ([3]; 1 uM test compound, lung fibroblasts from IPF patients with secondary PAH) was about 45% and the inhibition at 1 µM ([4]; 1 uM test compound, normal HPASMC from healthy patients) was about 35%. For the same molecule, the “effect on proliferation (in words)” value [4] was “inhibited normal HPASMC proliferation at higher concentrations”, the inhibition at 1 µM [1, 5] was about 60% and the “effect on proliferation (in words)” value [1] was “inhibited proliferation of IPAH HPASMC cells in a dose dependent manner”.
